Assay results published in patent US20070270337A1, “Pharmaceutical Compositions for Preventing or Treating Th1-Mediated Immune Diseases” (Daiichi Asubio Pharma Co., Ltd., priority 2003, published 2007).

How the values were obtained:
immature dendritic cells = assay: cGMP producing activity in immature dendritic cells; type: cell-based, human; details: 10^-12 to 10^-6 M, 15 minutes
Experimental: (§1) For experiments, the leukocyte layer (buffy coats) of peripheral blood from healthy volunteers (provided by Kyoto Red Cross Blood Center, Japan) was used. After the peripheral blood monocyte fraction was separated by density gradient centrifugation using Ficoll-Paque, the fraction was applied to a magnetic bead column using MACS CD14 or cultured in cell culture flasks at 37° C. for 1 hour to select the adhered cells, thereby separating monocytes. Immature dendritic cells were obtained by culturing the monocytes (2×10^5 cells/ml) for 7 days at 37° C. in the presence of 10% fetal bovine serum, 50 ng/mL human GM-CSF and 20 ng/mL human IL-4.
(§2) After the cells (1×10^5 cells/sample) were incubated in 500 μL of 10 mM HEPES, 0.5 mM 3-isobutyl-1-methylxanthine and 1 μM phospholamidon at 37° C. for 10 minutes, ANP or CNP was added to a final concentration of 10^−12 to 10^−6 M and incubation was continued for an additional 15 minutes. After the cells were washed and lysed, the intracellular cGMP concentration was measured by the ELISA method.

human monocytes = assay: cGMP producing activity in monocytes; type: cell-based; details: 10^-12 to 10^-6 M, 15 minutes
Experimental: as §1, §2

[1] = tested on: naive CD4+ T cells cultured with dendritic cells; assay: T cell proliferation induced by activated dendritic cells ([3H]-thymidine uptake); type: cell-based, human
Experimental: as §1
Naive T cells (naive CD4^+ T cells) were isolated from the monocyte fraction of umbilical cord blood using magnetic beads for MACS CD4^+ T cell isolation. Dendritic cells were activated by being cultured for 24 hours with lipopolysaccharide (LPS, 1 μg/mL) in the presence or absence of ANP (10^−7 M). The cells were washed and irradiated (30 Gy) to eliminate their proliferation ability, followed by culturing together with the naive T cells (1×10^5 cells/well) for 6 days. The T cells were evaluated for their proliferation ability by 8 hour uptake of [methyl-^3H]-thymidine (0.5 μCi/well).

dendritic cells = assay: Cytokine production from dendritic cells (ELISA); type: cell-based, human; details: for IL-10 production from dendritic cells / IL-12 production from dendritic cells / TNFα production from dendritic cells: LPS (1 μg/mL) stimulated, 24 hours, ANP 10^-8 to 10^-6 M, CNP 10^-6 M
Experimental: as §1
Dendritic cells were incubated for 24 hours with LPS (1 μg/mL) in the presence or absence of ANP (10^−8 M to 10^−6 M) or CNP (10^−6 M), and the levels of IL-12, IL-10 and TNFα in each culture supernatant were measured by the ELISA method.

[2] = tested on: naive T cells co-cultured with dendritic cells; assay: Intracellular cytokine expression in naive T cells (dendritic cell-driven Th1/Th2 polarization, flow cytometry); type: cell-based, human; details: dendritic cells pretreated with LPS (1 μg/mL) + ANP (10^-7 M) versus LPS alone; Sample #1 and #2
Experimental: as §1
Dendritic cells were activated by being pre-incubated for 24 hours with LPS (1 μg/mL) in the presence or absence of ANP (10^−7 M) and then irradiated (30 Gy) to eliminate their proliferation ability. These dendritic cells (1×10^5 cells/well) and naive T cells separated from cord blood (1×10^6 cells/well) were co-cultured for 6 days. After the T cells were grown in the presence of IL-2 (50 U/mL) for an additional 8 days, the T cells were collected and stimulated for 4 hours with 50 ng/mL phorbol ester (PMA) and 500 ng/mL ionomycin. Two hours before completion of the incubation, Brefeldin A (10 μg/mL) was added. […] IFN-γ positive cells were determined as Th1-type cells, while IL-4 positive cells were determined as Th2-type cells.

Molecule | intracellular cGMP levels (immature dendritic cells) | intracellular cGMP levels (human monocytes) | T cell proliferation induced by LPS-treated dendritic cells ([1]; ANP (10^-7 M) added simultaneously with LPS (1 μg/mL)) | proliferation of naive T cells ([1]; dendritic cells treated with ANP (10^-7 M) alone, without LPS) | IL-10 production from dendritic cells (dendritic cells) | IL-12 production from dendritic cells (dendritic cells) | TNFα production from dendritic cells (dendritic cells) | IL-12, TNF-α and IL-10 production from dendritic cells (dendritic cells; LPS-unstimulated dendritic cells, ANP alone) | IFN-γ-producing cells (Th1-type) [2] | IL-4-producing cells (Th2-type) [2]
CC[C@H](C)[C@@H]1NC(=O)[C@H](CCCNC(=N)N)NC(=O)[C@H](CC(=O)O)NC(=O)[C@H](CCSC)NC(=O)[C@H](CCCNC(=N)N)NC(=O)CNC(=O)CNC(=O)[C@H](Cc2ccccc2)NC(=O)[C@@H](NC(=O)[C@H](CO)NC(=O)[C@H](CO)NC(=O)[C@H](CCCNC(=N)N)NC(=O)[C@H](CCCNC(=N)N)NC(=O)[C@H](CC(C)C)NC(=O)[C@@H](N)CO)CSSC[C@@H](C(=O)N[C@@H](CC(N)=O)C(=O)N[C@@H](CO)C(=O)N[C@@H](Cc2ccccc2)C(=O)N[C@@H](CCCNC(=N)N)C(=O)N[C@@H](Cc2ccc(O)cc2)C(=O)O)NC(=O)CNC(=O)[C@H](CC(C)C)NC(=O)CNC(=O)[C@H](CO)NC(=O)[C@H](CCC(N)=O)NC(=O)[C@H](C)NC(=O)CNC1=O [ANP, atrial natriuretic peptide] | increase intracellular cGMP levels in dendritic cells in a concentration-dependent manner from a concentration as low as 10^−12 M | little increase in cGMP levels at all concentrations | almost completely inhibited | no effect on proliferation of naive T cells | enhance IL-10 production | decrease both IL-12 and TNFα levels in a concentration-dependent manner | decrease both IL-12 and TNFα levels in a concentration-dependent manner | no effect on these cytokine productions | decrease in IFN-γ-producing cells | increase in IL-4-producing cells
C-type natriuretic peptide [CNP, reference compound] | no effect on intracellular cGMP levels | no effect on intracellular cGMP levels | – | – | no effect on cytokine expression | no effect on cytokine expression | no effect on cytokine expression | – | – | –
